pEC50: −log10 of the molar value. Activity calls are given as the source filed them. The rule behind the calls is not given here. A value given as a limit tells only on which side of the number the result lay.

Eight compounds from ChEMBL document CHEMBL4033685, “C21-steroidal pregnane sapogenins and their derivatives as anti-inflammatory agents” (Bioorg Med Chem, 2017) can be followed below.

The target of data set [1] is T1, Toll-like receptor 4 (Homo sapiens, UniProt O00206). The data set is described as follows: Antagonist activity at TLR4 in human THP1 cells assessed as inhibition of LPS-stimulated IL-6 mRNA level at 10 uM after 16 hrs by RT-PCR method. It counts as cell-based.
The target in data set [2] is T1, Toll-like receptor 4. The data set can be described thus: Antagonist activity at TLR4 in human THP1 cells assessed as inhibition of LPS-stimulated RANTES mRNA level at 10 uM after 16 hrs by RT-PCR method. The class given is cell-based.
In data set [3] the target is T1, Toll-like receptor 4. The data set is described as follows: Antagonist activity at TLR4 (unknown origin) expressed in human AD293 cells assessed as inhibition of LPS/ATP-stimulated TLR4/NF-kB signaling pathway after 16 hrs by luciferase reporter gene assay. The class given is cell-based.
The species named for data set [4] is Homo sapiens. The data set can be described thus: Inhibition of TNFalpha-stimulated NF-kB signaling pathway (unknown origin) expressed in human AD293 cells after 4 hrs by luciferase reporter gene assay. The class given is cell-based.
Data set [5] has as its system AD293. The data set can be described thus: Cytotoxicity against human AD293 cells assessed as reduction in cell viability after 24 hrs by methylene blue dye based spectrophotometric method. The conditions noted are these: ad293, 24 h.
In data set [6] the target is T1, Toll-like receptor 4. The data set can be described thus: Antagonist activity at TLR4 (unknown origin) expressed in human AD293 cells assessed as inhibition of LPS/ATP-stimulated TLR4/NF-kB signaling pathway at 10 uM after 16 hrs by luciferase reporter gene assay. The class given is cell-based.
Data set [7] concerns AD293. The data set is described as follows: Cytotoxicity against human AD293 cells assessed as reduction in cell viability at 10 uM after 24 hrs by methylene blue dye based spectrophotometric method. The conditions noted are these: ad293, 24 h.

T1 sequence (O00206 whole entry): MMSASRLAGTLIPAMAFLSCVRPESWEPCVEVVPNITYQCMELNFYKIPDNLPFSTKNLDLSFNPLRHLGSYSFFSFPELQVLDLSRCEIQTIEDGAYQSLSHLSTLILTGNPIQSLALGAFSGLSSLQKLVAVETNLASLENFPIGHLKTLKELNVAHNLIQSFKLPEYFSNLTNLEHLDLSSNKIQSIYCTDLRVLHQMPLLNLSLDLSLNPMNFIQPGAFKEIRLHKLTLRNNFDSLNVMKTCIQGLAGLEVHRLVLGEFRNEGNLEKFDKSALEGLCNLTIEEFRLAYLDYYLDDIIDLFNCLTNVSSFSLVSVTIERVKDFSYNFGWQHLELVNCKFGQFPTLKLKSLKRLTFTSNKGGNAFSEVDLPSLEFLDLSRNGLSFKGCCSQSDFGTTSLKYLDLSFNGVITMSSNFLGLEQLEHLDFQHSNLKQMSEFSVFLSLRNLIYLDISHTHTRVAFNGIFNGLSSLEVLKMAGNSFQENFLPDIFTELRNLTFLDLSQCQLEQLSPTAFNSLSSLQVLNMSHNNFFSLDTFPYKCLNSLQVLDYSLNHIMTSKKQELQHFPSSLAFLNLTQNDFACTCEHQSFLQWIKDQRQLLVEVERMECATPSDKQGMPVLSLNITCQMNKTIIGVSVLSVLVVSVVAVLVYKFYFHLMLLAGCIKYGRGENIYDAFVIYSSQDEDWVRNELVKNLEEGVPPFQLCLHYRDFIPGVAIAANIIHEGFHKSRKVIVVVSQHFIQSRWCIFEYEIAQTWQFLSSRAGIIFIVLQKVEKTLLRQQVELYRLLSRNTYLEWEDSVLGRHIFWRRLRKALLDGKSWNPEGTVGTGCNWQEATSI

Regarding `CC(=O)[C@]1(O)CC[C@@]2(O)[C@]1(C)[C@H](OC(=O)/C=C(\C)C(C)C)C[C@@H]1[C@@]3(C)CC[C@H](OC(=O)c4ccc(Cl)nc4)CC3=CC[C@]12O`, the inhibition result in data set [1] and in data set [2] was “inactive” in each case.
Regarding `C[C@@H](OC(=O)c1cccnc1)[C@]1(O)CC[C@@]2(O)[C@]1(C)[C@H](OC(=O)/C=C/c1ccccc1)C[C@@H]1[C@@]3(C)CC[C@H](OC(=O)c4ccccc4)CC3=CC[C@]12O`, the pEC50 in data set [3] is 4.96. For the same compound, in data set [4], the 10% effect concentration (EC10) was greater than 10 µM. The CC10 in data set [5] is greater than 10 µM.
As for `CC(=O)O[C@H]1CC[C@@]2(C)C(=CC[C@]3(O)[C@@H]2C[C@@H](OC(=O)c2ccc(O)cc2)[C@@]2(C)[C@]3(O)CC[C@@]2(O)C(C)=O)C1`, the inhibition entry in data set [1] and in data set [2] was “inactive” each time.
For the compound `CC(=O)[C@]1(O)CC[C@@]2(O)[C@]1(C)[C@H](OC(=O)/C=C(\C)C(C)C)C[C@@H]1[C@@]3(C)CC[C@H](Cl)CC3=CC[C@]12O`, the pEC50 in data set [3] is 4.92. The EC10 in data set [4] was greater than 10 µM. The CC10 in data set [5] is greater than 10 µM.
Turning to `CC(=O)[C@]1(OC(=O)c2ccccc2I)CC[C@@]2(O)[C@]1(C)[C@H](OC(=O)c1ccc(O)cc1)C[C@@H]1[C@@]3(C)CC[C@H](OC(=O)c4ccccc4I)CC3=CC[C@]12O`, the inhibition entry in data set [1], in data set [2] and in data set [6] was “inactive” each time. Also, the Activity entry in data set [7] was “Toxic”.
For `C[C@@H](OC(=O)c1cccnc1)[C@]1(O)CC[C@@]2(O)[C@]1(C)[C@H](OC(=O)/C=C/c1ccccc1)C[C@@H]1[C@@]3(C)C=CC(=O)C=C3C=C[C@]12O`, in data set [3], the pEC50 is 5.20. In data set [4], this compound displayed an EC10 greater than 10 µM. Further, the CC10 in data set [5] was greater than 10 µM.
On to `CC(=O)[C@]1(O)CC[C@@]2(O)[C@]1(C)[C@H](OC(=O)/C=C(\C)C(C)C)C[C@@H]1[C@@]3(C)CC[C@H](OC(=O)/C=C/c4ccccc4)CC3=CC[C@]12O`, for which the inhibition result in data set [1] and in data set [2] was “inactive” throughout.
As for `CC(=O)[C@]1(O)CC[C@@]2(O)[C@]1(C)[C@H](OC(=O)c1ccccc1)C[C@@H]1[C@@]3(C)CC[C@H](O)CC3=CC[C@]12O`, the inhibition result in data set [1] and in data set [2] was “inactive” throughout.
